Positions of bridges follow the written chain, without caps; N, C: chain ends. Non-standard residues stand in square brackets, D forms with d. Residues, ends and D or L forms follow the SMILES beside them. *: point of attachment. 5FAM = O=C1OC2(c3ccc(O)cc3Oc3cc(O)ccc32)c2ccc(C(=O)*)cc21; βAla = NCCC(=O)O
Experiments:
TmrAB = experiment: Competition of CP^F binding by substrate peptides (fluorescence anisotropy); parameters: species or system Thermus thermophilus
Excerpt: To elucidate the mechanistic basis for the inhibition of ATP hydrolysis and substrate transport, we investigated the effects of CPs on substrate binding. In the first approach, fluorescent CP^Fs were used as reporters in fluorescence polarization. […] In addition, we examined the impact of CP^Bs on ATP binding to TmrAB by scintillation proximity assays (SPA) (Figure 4C). […] Taken together, CPs are high-affinity allosteric inhibitors of TmrAB that leave ATP binding and substrate interaction largely unaffected, while impairing ATP hydrolysis and substrate translocation across the membrane.
Figure 4. […] (A) CP^Fs binding TmrAB is not affected by substrate peptide binding. […] For competition, C4^ATTO655 peptide (2 µM) or R9LQK peptide (200 µM) were added. (B) Binding of C4F peptide is not affected by CP^Bs. C4F peptides (50 nM) were mixed with TmrAB (4 µM), and fluorescence anisotropy was monitored as described in (A). For competition, C4^ATTO655 (10 µM) or CP^Bs (6 µM) were added. […] TmrAB (0.2 µM) were immobilized on SPA beads and incubated with ATP (3 μM, traced with ^3H-ATP) in the presence and absence of CP^Bs (1 µM each) for 30 min on ice. ATP binding was monitored by SPA. Background values were determined after releasing TmrAB complexes from the beads by adding imidazole (200 mM). The background signal in the absence of CP^Bs was set to 0 cpm. […] As this is an equilibrium experiment, this can be rationalized by the fact that CP13 stabilizes the ATP-bound OF conformer. Figure 4—source data 1. Source data for Figure 4.
To determine equilibrium binding constants, CP^Fs (50 nM) were incubated with increasing concentrations of TmrAB-containing or empty liposomes. To probe the conformational selectivity, CP^Fs (50 nM) were mixed with detergent-solubilized IF TmrAB or OF TmrA^EQB. Before, OF TmrA^EQB was nucleotide-trapped by incubation with ATP (1 mM) and MgCl2 (3 mM) in the absence of CP^Fs for 5 min at 45°C. […] For peptide competition studies, RRYC^fluoresceinKSTEL (C4F, 50 nM) were incubated with detergent-solubilized TmrAB (4 µM), CP^Bs (6 µM), or C4^ATTO655 (10 µM). […] Fluorescence anisotropy was analyzed at λex/em of 485/520 nm using a microplate reader (CLARIOstar, BMG LABTECH). Fluorescence anisotropy was calculated using:(1) r=I||−I⊥/I||+2⋅I⊥ with I||: parallel intensity and I⊥: perpendicular intensity. Binding of CP^Fs were fitted by a one-site binding model (Langmuir 1:1) using:(2) Y=Bmax∙[L]/KD+[L] with Y: binding, Bmax: maximal binding, KD: equilibrium dissociation constant, and [L]: ligand concentration. Data represent mean ± SD from three experiments.

wild-type TmrAB = experiment: Nucleotide occlusion, wild-type TmrAB; type: biochemical, Thermus thermophilus; settings: 5 min 45°C; for Effect on nucleotide occlusion, wild-type TmrAB: CP^F 4 µM; for Occluded nucleotides, ADP / Occluded nucleotides, ATP: TmrAB 2 µM, CP^F 4 µM or orthovanadate 1 mM, ATP 1 mM traced with [α32P]-ATP, normalized to vanadate-trapped state
Method: Figure 5. […] (A, B) CP6^F (A) or CP13^F (B, 50 nM each) were incubated with increasing concentrations of detergent-solubilized inward-facing TmrAB (in the absence of Mg-ATP) or outward-facing TmrA^EQB, which was trapped with Mg-ATP (1 mM) for 5 min at 45°C as described ([Hofmann et al., 2019]; [Stefan et al., 2020]). Immediately after, the fluorescence anisotropy was assayed at λex/em = 485/520 nm. The difference in fluorescence polarization was normalized to free and fully bound CP^F. Data were fitted by a one-site binding model. […] TmrAB (2 µM each) were mixed with CP^Fs (4 µM), ATP (1 mM, traced with [α^32P]-ATP), and MgCl2 (5 mM) for 5 min at 4°C or 45°C. Cold ATP (10 mM) was added, and freely exchangeable nucleotides were removed by rapid gel filtration. Occluded nucleotides were analyzed by thin layer chromatography and autoradiography. Representative radiograms for independent triplicates are shown. (D) Stably occluded nucleotides, [α^32P]-ATP and [α^32P]-ADP, were quantified by autoradiography. Data were normalized to the vanadate-trapped state. In (A, B, D), mean values ± SD (n = 3) are shown. Figure 5—source data 1. Source Data for Figure 5. Figure 5—figure supplement 1. […] (A) CP^Fs (50 nM each) were incubated with increasing concentrations of detergent-solubilized IF TmrAB in the inward-facing (IF) conformation (absence of Mg-ATP) or TmrA^EQB populated in the outward-facing (OF) conformation, which was trapped in the OF conformation by Mg-ATP (1 mM) after 5 min incubation at 45°C. The difference in fluorescence polarization was normalized to unbound (0%) and 100% bound CP^F. Data were fitted by a one-site binding model. Fluorescence anisotropy was recorded at λex/em = 485/520 nm. […] TmrA^EQB (2 µM) were incubated in the absence and presence of CP^Fs (4 µM each), ATP (1 mM, traced with [α^32P]-ATP), and MgCl2 (5 mM) for 5 min at 4°C or 45°C. Cold ATP (10 mM) was added, and free nucleotides were removed by rapid gel filtration. Occluded nucleotides were analyzed by thin layer chromatography and autoradiography. Representative radiograms for independent triplicates are shown. […] Figure 5—figure supplement 1—source data 1.
We also examined the impact of CP^Fs on the IF-to-OF transition of wild-type TmrAB induced by ATP binding through nucleotide occlusion (stable trapping) as the readout. We induced the IF-to-OF switch with radiotraced [α^32P]-ATP for 5 min at 45°C in the presence and absence of CPs and removed unbound nucleotides by rapid gel filtration. Subsequently, the occluded nucleotides were identified and quantified by thin layer chromatography and autoradiography (Figure 5C, D).
Detergent-solubilized TmrAB (2 µM) were incubated with ATP (1 mM) traced with [α^32P]-ATP (Hartmann Analytic), MgCl2 (5 mM), CP^Fs (4 µM), or orthovanadate (1 mM) for 5 min at 45°C. Cold ATP (10 mM) was added, and unbound nucleotides were removed by rapid gel filtration (Bio-Spin columns P-30, Bio-Rad). ATP (10 mM) was added, and samples were spotted onto polyethyleneimine cellulose plates (Merck Millipore). Thin-layer chromatography was performed using 0.75 M KH2PO4 pH 3.4.

[1] = CP^F 50 nM + TmrAB + competitor C4^ATTO655 peptide 2 µM
[2] = CP^F 50 nM + TmrAB + competitor R9LQK peptide 200 µM
[3] = listed as -: CP^F 50 nM before addition of TmrAB
[4] = listed as TmrAB: CP^F 50 nM + TmrAB 0.5-0.7 µM, no competitor

CC[C@H](C)[C@@H]1NC(=O)[C@H]([C@@H](C)O)NC(=O)[C@H](CC(C)C)NC(=O)[C@H](Cc2c[nH]c3ccccc23)NC(=O)[C@H](Cc2ccccc2)NC(=O)[C@H](CC(N)=O)NC(=O)[C@H](CCC(=O)O)NC(=O)[C@H](CC(C)C)NC(=O)[C@H](CS)NC(=O)[C@H](Cc2c[nH]cn2)NC(=O)[C@H](CO)NC(=O)[C@@H](Cc2ccc(O)cc2)NC(=O)CSC[C@@H](C(=O)NCC(=O)N[C@@H](CO)C(=O)NCCC(=O)NCCC(=O)N[C@@H](CCCNC(=N)N)C(=O)N[C@@H](CCCCNC(=O)c2ccc3c(c2)C(=O)OC32c3ccc(O)cc3Oc3cc(O)ccc32)C(N)=O)NC(=O)[C@H](CC(C)C)NC1=O [CP6] ({CH2CO}-[dY]SHCLENFWLTILCGS[βAla][βAla]RK(5FAM)-NH2; thioether N-14)
Bound CP^F, fluorescence anisotropy (TmrAB; [1]): 0.109
Bound CP^F, fluorescence anisotropy (TmrAB; [2]): 0.101
Bound CP^F, fluorescence anisotropy (TmrAB; [3]): 0.022
Bound CP^F, fluorescence anisotropy (TmrAB; [4]): 0.111
Effect on nucleotide occlusion, wild-type TmrAB (wild-type TmrAB): nucleotide occlusion was completely abolished
Occluded nucleotides, ADP (wild-type TmrAB): 2.66%
Occluded nucleotides, ATP (wild-type TmrAB): 6.76%

CC(C)C[C@@H]1NC(=O)[C@H](Cc2ccccc2)NC(=O)CNC(=O)[C@H](CO)NC(=O)[C@H](Cc2ccccc2)NC(=O)[C@H](CC(=O)O)NC(=O)[C@@H]2CCCN2C(=O)[C@H]([C@@H](C)O)NC(=O)[C@@H](Cc2ccc(O)cc2)NC(=O)CSC[C@@H](C(=O)NCC(=O)N[C@@H](CO)C(=O)NCCC(=O)NCCC(=O)N[C@@H](CCCNC(=N)N)C(=O)N[C@@H](CCCCNC(=O)c2ccc3c(c2)C(=O)OC32c3ccc(O)cc3Oc3cc(O)ccc32)C(N)=O)NC(=O)[C@H](C)NC(=O)[C@H](CC(N)=O)NC(=O)[C@H](CCCNC(=N)N)NC(=O)[C@H](CC(C)C)NC(=O)[C@H](Cc2ccccc2)NC(=O)[C@H](C)NC1=O [CP12] ({CH2CO}-[dY]TPDFSGFLAFLRNACGS[βAla][βAla]RK(5FAM)-NH2; thioether N-16)
Bound CP^F, fluorescence anisotropy (TmrAB; [1]): 0.160
Bound CP^F, fluorescence anisotropy (TmrAB; [2]): 0.155
Bound CP^F, fluorescence anisotropy (TmrAB; [3]): 0.025
Bound CP^F, fluorescence anisotropy (TmrAB; [4]): 0.168
Effect on nucleotide occlusion, wild-type TmrAB (wild-type TmrAB): nucleotide occlusion was completely abolished
Occluded nucleotides, ADP (wild-type TmrAB): 3.67%
Occluded nucleotides, ATP (wild-type TmrAB): 7.52%

CC[C@H](C)[C@@H]1NC(=O)[C@H](Cc2c[nH]c3ccccc23)NC(=O)[C@H](CC(N)=O)NC(=O)[C@H](C)NC(=O)[C@H](CO)NC(=O)[C@@H]2CCCN2C(=O)[C@H](CC(=O)O)NC(=O)[C@@H](Cc2ccc(O)cc2)NC(=O)CSC[C@@H](C(=O)NCC(=O)N[C@@H](CO)C(=O)NCCC(=O)NCCC(=O)N[C@@H](CCCNC(=N)N)C(=O)N[C@@H](CCCCNC(=O)c2ccc3c(c2)C(=O)OC32c3ccc(O)cc3Oc3cc(O)ccc32)C(N)=O)NC(=O)[C@H]([C@@H](C)O)NC(=O)[C@H](CC(C)C)NC(=O)[C@H](CC(C)C)NC(=O)[C@H](C(C)C)NC(=O)[C@H](CC(C)C)NC1=O [CP13] ({CH2CO}-[dY]DPSANWILVLLTCGS[βAla][βAla]RK(5FAM)-NH2; thioether N-14; C-terminus assumed)
Bound CP^F, fluorescence anisotropy (TmrAB; [1]): 0.122
Bound CP^F, fluorescence anisotropy (TmrAB; [2]): 0.123
Bound CP^F, fluorescence anisotropy (TmrAB; [3]): 0.025
Bound CP^F, fluorescence anisotropy (TmrAB; [4]): 0.127
Effect on nucleotide occlusion, wild-type TmrAB (wild-type TmrAB): promoted stable ATP occlusion
Occluded nucleotides, ADP (wild-type TmrAB): 10.47%
Occluded nucleotides, ATP (wild-type TmrAB): 55.84%

CC(C)[C@@H]1NC(=O)[C@H](Cc2ccccc2)NC(=O)[C@@H]2CCCN2C(=O)[C@H](CC(N)=O)NC(=O)[C@H](Cc2c[nH]c3ccccc23)NC(=O)[C@H](C(C)C)NC(=O)[C@H](Cc2ccc(O)cc2)NC(=O)[C@H](Cc2ccccc2)NC(=O)[C@@H](Cc2ccc(O)cc2)NC(=O)CSC[C@@H](C(=O)NCC(=O)N[C@@H](CO)C(=O)NCCC(=O)NCCC(=O)N[C@@H](CCCNC(=N)N)C(=O)N[C@@H](CCCCNC(=O)c2ccc3c(c2)C(=O)OC32c3ccc(O)cc3Oc3cc(O)ccc32)C(N)=O)NC(=O)[C@H](CCCCN)NC(=O)[C@H](Cc2ccccc2)NC1=O [CP14] ({CH2CO}-[dY]FYVWNPFVFKCGS[βAla][βAla]RK(5FAM)-NH2; thioether N-12; C-terminus assumed)
Bound CP^F, fluorescence anisotropy (TmrAB; [1]): 0.143
Bound CP^F, fluorescence anisotropy (TmrAB; [2]): 0.140
Bound CP^F, fluorescence anisotropy (TmrAB; [3]): 0.027
Bound CP^F, fluorescence anisotropy (TmrAB; [4]): 0.141
Effect on nucleotide occlusion, wild-type TmrAB (wild-type TmrAB): promoted stable ATP occlusion
Occluded nucleotides, ADP (wild-type TmrAB): 8.19%
Occluded nucleotides, ATP (wild-type TmrAB): 88.51%
